Reference: patent US4221794A, “Method of imparting immunomodulating and antiviral activity” (Newport Pharmaceuticals International, Inc., priority 1979, dated 1980)

How the values were obtained:
mouse lymphocytes = test: Mitogen (Con A) induced mouse lymphocyte (spleen cell) proliferation; assay type: cell-based; details: for Maximum Percent Change, Mitogen Induced (Con A) Mouse Lymph. Prolif.: plus = immunostimulating, minus = immunoinhibiting, 0 = neither
Text: The following three assay procedures are used to evaluate the ability of the test substances to modulate the activity of several classes of cells in the immune system. In these systems it is possible to identify both immunopotentiating activity (evidence by an enhancement of the parameter examined) as well as immunosuppressant activity (evidenced by an inhibition of the parameter examined).
1. Mitogen-Induced Mouse Spleen Cell Assay
Mouse spleen cells contain a population of both B and T lymphocytes which can be stimulated by a number of foreign substances (e.g., plant mitogens such as Con A) to proliferate. This enhanced proliferation is an indication of enhanced cell mediated immunity. The method below describes the system used to evaluate test substances as immunopotentiators.
Concanavalin A (Calbiochem, La Jolla, California), Lot #210073, lyophilized in NaCl, was prepared first as a 1% solution and diluted as a 2×concentration for each dilution (0.5, 1.0, 2.5 μg/ml).
Six to eight week old male Balb/c and C3 H inbred mice were obtained from the following sources: Flow Research Animals, Inc., Dublin, Virginia; Charles River Breeding Laboratories, Wilmington, Massachusetts; Laboratory Supply Company, Indianapolis, Indiana; and Lionel Strong Foundation, San Diego, California.
Three to five mice were sacrificed by cervical dislocation and the spleens aseptically removed. Pooled spleens were minced and teased with sterile forceps; then strained through a double layer of nylon mesh. The cell suspension was washed once with 15 ml of RPMI 1640 supplemented with 5% fetal calf serum and antibiotics. Cells were cultured at a concentration of 10^6 cells/0.1 ml/well in micro-plates. Cultures were incubated in the presence or absence of mitogen in a humidified atmosphere containing 5% CO2 for 48 hours. The test compound was added to cultures at various concentrations concommitant with mitogen.
Proliferation was assayed by the degree of incorporation of 1.0 μCi of [^3 H] thymidine over an 18 hour incubation period. Cultures were harvested by a MASH unit (Otto Hiller Co., Madison, Wisconsin) and thymidine incorporation was assayed by liquid scintillation spectrometry. Cultures were performed in triplicate and data are expressed as means plus or minus the standard error of the experimental means. Drug stimulation indices over control values were also calculated and portrayed graphically.
Table 4 above presents the results of an evaluation of a number of these subject compounds as potentiators of the immune response. Three different test systems were used. The first involves a measure of the ability of the test compound to enhance the ability of mouse lymphocytes to proliferate in response to a plant mitogen (Con A). The second involves measuring the ability of the test compounds to enhance human lymphocyte proliferation in response to a second plant mitogen (PHA). The third system measures the ability of these test substances to enhance macrophage proliferation in response to a natural lymphokine (MMF, Macrophage Mitogenic Factor).

Toxicity in mice = details: for LD50: mouse, in vivo
influenza virus = test: microbe, parasite or virus in culture; assay type: cell-based, influenza virus Type A/USSR 90 (HeLa cell cultures)
Herpes virus = test: Anti-herpes activity, plaque assay (Table 3); assay type: cell-based, herpes hominis type 2 (Vero cells); details: for Plaques (PFU) Percent Inhibition: Test 15-150 μg/ml; for reduce plaque formation caused by Herpes Simplex virus: concentrations less than 100 μg/ml
Text: Anti-Herpes Activity--(Plaque Assay)
The infection of tissue culture cells by Herpes virus causes cell lysis. After a period of time these lysed cells are visualized as a tiny clear area (plaque) on a layer of cells. The incorporation of a test substance into the media will reduce the number of plaques if it is capable of preventing virus replication. The method is as follows:
There was employed herpes hominis type 2 purchased from American Type Culture Collection (ATCC), Bethesda, Maryland, ATCC #VR 540, Lot 3D. The lyophilized viral suspension was reconstituted with 1 ml sterile distilled H2 O. The virus was passed twice through HeLa-cell monolayers. The tissue-culture supernates were pooled, dispensed in 1-ml aliquots, and stored at -70° C.
Vero cells in log-growth phase were subcultured at a concentration of 1×10^5 cells/ml in 50-ml Falcon flasks in Eagle's Minimum Essential Medium (MEM), supplemented with 10% fetal calf serum (FCS) and antibiotics. Media were changed the day following planting. The Vero monolayers reached confluence by the second day after planting and with the cells in log phase, the cultures were used for the plaque assay.
Culture media were poured off and the monolayers were wahsed once with phosphate-buffered saline (PBS). Several different dilutions of the working-stock virus suspension were prepared and each culture flask was infected with 0.5 ml of one of the virus dilutions added to FCS-free medium. […] Controls were prepared with medium devoid of drug.
Virus adsorption was allowed to proceed for 2 hours at 37° C., during which time the cultures were rocked gently every 15 minutes. Then Media were poured off and the monolayers were washed once with 10 ml PBS.
Agarose was prepared at a concentration of 6% w/v in 50 ml PBS. A stock medium of MEM supplemented with 2% FCS was prepared. Drug was added to some of the stock medium at 150 μg/ml. The three solutions were maintained at 47° C. In addition, a 1:10 dilution of pooled human anti-herpes sera was readied. Just before the start of treatment, 15 ml of the agarose solution were added to 85 ml of medium. Another 15 ml of agarose were added to 85 ml of drug-medium.
Each of the washed monolayers in one group of experiments was treated either with 5 ml of agarose-medium or with 5 ml of agarose-drug-medium. In another group of experiments, each monolayer was treated either with 0.2 ml of anti-herpes sera in 5 ml of stock medium, or with 0.2 ml of anti-herpes sera in 5 ml of drug-medium. The anti-herpes sera were used in place of agarose to localize plaques by neutralizing any free virus in the medium. The flasks were allowed to remain at room temperature for 5 minutes, after which they were incubated at 37° C. for 2 days. Triplicate cultures were used for most treatment groups.
Ten ml of PBS then were added to each flask. Overlays were shaken gently and then were poured out of the flasks. The monolayers were stained with a solution 0.5% w/v crystal violet in 50% methanol in triple-distilled H2 O.
Plaques were counted either directly by transmitted fluorescent light and macroviewing, or by the use of light microscopy for microplaques. Microplaques were counted by averaging three fields per experimental group under 150×magnification.

Structure (SMILES)	% Stimulation, Mitogen Induced Murine Lymphocyte Proliferation (mouse lymphocytes; 01-1.0 μg/ml)	% Stimulation, Mitogen Induced Murine Lymphocyte Proliferation (mouse lymphocytes; 1.0-10 μg/ml)	Maximum Percent Change, Mitogen Induced (Con A) Mouse Lymph. Prolif. (mouse lymphocytes; 1.0-10 (unit not given))	% Stimulation, Mitogen Induced Murine Lymphocyte Proliferation (mouse lymphocytes; 10-100 μg/ml)	Maximum Percent Change, Mitogen Induced (Con A) Mouse Lymph. Prolif. (mouse lymphocytes; 10-100 (unit not given))	Maximum Percent Change, Mitogen Induced (Con A) Mouse Lymph. Prolif. (mouse lymphocytes; .01-1.0 (unit not given))	drug related mortality (Toxicity in mice; mice, doses of 1000 mg/kg)	% Inhibition of Hemadsorption Foci (influenza virus; Test Compound Conc. <10 μg/ml)	inhibition at 100 µg/mL (influenza virus; unidentified influenza virus, read-out: % Inhibition of Hemadsorption Foci, Test Compound Conc. >100 μg/ml)	inhibition of replication of Herpes Simplex virus (in words) (Herpes virus)	Plaques (PFU) Percent Inhibition (Herpes virus)	reduce plaque formation caused by Herpes Simplex virus (Herpes virus)	LD50 (Toxicity in mice)	LD50 (Toxicity in mice; sc)	% Inhibition of Hemadsorption Foci (influenza virus; Test Compound Conc. >100 μg/ml)
CCCCCC[C@H]([C@H](C)O)n1cnc2c(=O)[nH]cnc21 (relative stereo) [NPT 15392, ERYTHRO-9-(2-HYDROXY-3-NONYL)HYPOXANTHINE]	> 50%	30-50%	162%	30-50%	-72%	172%	no drug related mortality was noted	86%	100%	shown to inhibit the replication of Herpes Simplex virus	98%	> 90%			
CCCCCC[C@H]([C@H](C)O)n1cnc2c(=O)[nH]cnc21 (relative stereo) [NPT 15410]	> 50%	30-50%	40%	30-50%	40%	140%		58%		shown to inhibit the replication of Herpes Simplex virus	98%	> 90%	4300 mg/kg	4900 mg/kg	96%
